Assays:
[1] = test system: T cell lymphoma Karpas-299 cell line (harboring endogenous NPM-ALK fusion gene); experiment: Karpas-299 cell proliferation assay (CellTiter-Glo); type: cell-based; details: Homo sapiens, 72 hours incubation, read-out: Karpas 299 cell proli. IC50
[2] = test system: Essential thrombocythemia cell line SET-2 cells (harboring endogenous JAK2 point mutation); experiment: SET-2 cell proliferation assay (CellTiter-Glo); type: cell-based; details: Homo sapiens, 72 hours incubation, read-out: SET2 cell proli. IC50
[3] = test system: KM12 cells; experiment: Caspase activity assay / PARP western blot; type: cell-based; details: 72 hours
Description: KM12 cells were maintained in DMEM medium supplemented with 10% fetal bovine serum and antibiotics. 500,000 cells were seeded in 12-well plate and various concentration of compounds were introduced for 72 hours For staurosporine treatment, 500 nM of STS were added at time of 60 hours and incubation of 12 hours as a positive control. All the cells were collected and washed with 1×PBS twice and then lysed in a lysis buffer (20 mM HEPES, 150 mM NaCl, 10 mM KCl, 5 mM EDTA, 1% NP40) supplemented with Halt protease and phosphatase inhibitors (Thermo Scientific). For caspase assays, around 20 μL (20 μg) of cell lysate were incubated with 20 μL of caspase3 glo reagent (Promega), measuring enzyme activity by the release of luminescence after 20 min incubation at 37° C. For western blotting, cell lysates were boiled and analyzed by SDS-PAGE/immunoblotting using PARP, or actin antibodies.

[4] = biological target: TPM3-TRKA (Homo sapiens (Human), UniProt P04629+P06753); experiment: TRKA phosphorylation assay in KM12 cells (western blot); type: cell-based; details: 5 hours treatment, read-out: inhibition of autophosphorylation of TPM3-TRKA IC50
TPM3-TRKA, sequence (P04629 other isoform, or with tags, fused parts or gaps): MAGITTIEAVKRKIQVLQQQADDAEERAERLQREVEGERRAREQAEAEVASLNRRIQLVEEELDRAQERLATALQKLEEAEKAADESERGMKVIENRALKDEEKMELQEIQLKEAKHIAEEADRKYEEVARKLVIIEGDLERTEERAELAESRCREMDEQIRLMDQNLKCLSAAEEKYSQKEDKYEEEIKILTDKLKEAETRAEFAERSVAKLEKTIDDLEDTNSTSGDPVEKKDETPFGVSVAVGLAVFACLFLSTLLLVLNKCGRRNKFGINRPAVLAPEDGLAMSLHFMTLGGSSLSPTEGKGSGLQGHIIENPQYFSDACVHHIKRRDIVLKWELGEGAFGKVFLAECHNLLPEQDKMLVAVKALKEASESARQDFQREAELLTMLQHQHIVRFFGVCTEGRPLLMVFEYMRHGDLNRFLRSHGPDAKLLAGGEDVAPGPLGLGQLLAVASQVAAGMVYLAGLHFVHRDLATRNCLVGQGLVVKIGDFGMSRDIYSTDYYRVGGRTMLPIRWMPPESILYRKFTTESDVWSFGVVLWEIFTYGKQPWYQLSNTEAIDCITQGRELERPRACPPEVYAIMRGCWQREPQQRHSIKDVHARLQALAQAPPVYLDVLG
Description: (§1) Colorectal cell lines KM 12 (harboring endogenous TPM3-TRKA fusion gene) cells were cultured in DMEM medium, supplemented with 10% fetal bovine serum and 100 U/mL of penicillin/streptomycin. One million cells were seeded in 6-well plate for 24 hours before compounds treatment. Cells were washed with 1×PBS and collected after 5 hours treatment and lysed in RIPA buffer (50 mM Tris, pH 7.4, 150 mM NaCl, 1% NP-40, 0.5% Deoxycholate, 0.1% SDS) supplemented with 10 mM EDTA, Halt protease and phosphatase inhibitors (Thermo Scientific). Protein lysates (20 μg) were resolved on 4-12% Bolt Bis-Tris precasted gels with MES running buffer (Life Technologies), transferred to nitrocellulose membranes using Trans-Blot Turbo Transfer System (Bio-Rad) and detected with antibodies targeting phosphorylated TRK A (Cell Signaling Technology, Y496, Y680, Y681, clone C50F3; 1:1000 dilution), total TRK A (Santa Cruz Biotechnology, sc-11; clone C-14, 1:2000 dilution), phosphorylated AKT (Cell signaling, S473, D9E, #9271; 1:5000 dilution), total AKT (Cell Signaling Technology, 40D4; 1:2000 dilution), phosphorylated ERK (Cell Signaling Technology, Thr 202/204, D13.14.4E, #4370; 1:2000 dilution), total ERK (Cell Signaling Technology; 1:1000 dilution) and Tubulin (Sigma, T4026, 1:5000 dilution). […]

[5] = biological target: JAK2 (Homo sapiens (Human), UniProt O60674); experiment: KINOMEscan kinase binding assay (DiscoveRx)
JAK2, sequence (O60674 whole entry): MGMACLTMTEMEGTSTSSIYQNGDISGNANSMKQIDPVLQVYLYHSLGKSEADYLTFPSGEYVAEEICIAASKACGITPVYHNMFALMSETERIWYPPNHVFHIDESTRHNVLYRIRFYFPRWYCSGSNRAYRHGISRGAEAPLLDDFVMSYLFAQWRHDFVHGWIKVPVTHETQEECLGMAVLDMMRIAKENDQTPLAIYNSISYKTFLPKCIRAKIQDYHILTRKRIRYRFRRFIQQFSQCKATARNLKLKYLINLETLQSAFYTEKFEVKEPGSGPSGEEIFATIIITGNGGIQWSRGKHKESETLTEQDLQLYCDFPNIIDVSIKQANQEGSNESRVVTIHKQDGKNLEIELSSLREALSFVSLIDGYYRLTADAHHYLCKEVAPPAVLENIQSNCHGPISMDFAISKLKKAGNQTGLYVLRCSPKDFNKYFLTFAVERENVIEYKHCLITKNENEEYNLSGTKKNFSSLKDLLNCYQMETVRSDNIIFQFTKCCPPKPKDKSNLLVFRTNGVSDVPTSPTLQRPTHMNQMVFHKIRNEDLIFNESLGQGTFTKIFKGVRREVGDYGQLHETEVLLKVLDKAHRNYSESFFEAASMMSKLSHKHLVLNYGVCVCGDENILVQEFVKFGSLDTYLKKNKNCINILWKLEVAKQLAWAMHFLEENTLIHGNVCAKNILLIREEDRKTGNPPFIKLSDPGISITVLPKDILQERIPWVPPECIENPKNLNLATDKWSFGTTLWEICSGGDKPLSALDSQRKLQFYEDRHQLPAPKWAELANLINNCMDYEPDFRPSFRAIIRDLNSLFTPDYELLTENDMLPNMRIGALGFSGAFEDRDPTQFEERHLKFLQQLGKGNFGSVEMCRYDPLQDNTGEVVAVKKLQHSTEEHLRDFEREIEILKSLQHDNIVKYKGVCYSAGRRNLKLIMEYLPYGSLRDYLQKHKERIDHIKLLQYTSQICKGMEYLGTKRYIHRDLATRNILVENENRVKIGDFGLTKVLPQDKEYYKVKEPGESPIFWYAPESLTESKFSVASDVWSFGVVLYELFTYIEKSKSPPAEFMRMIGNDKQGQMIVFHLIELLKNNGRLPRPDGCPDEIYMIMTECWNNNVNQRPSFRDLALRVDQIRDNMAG
Description: (§2) For most assays, kinase-tagged T7 phage strains were prepared in an E. coli host derived from the BL21 strain. E. coli were grown to log-phase and infected with T7 phage and incubated with shaking at 32° C. until lysis. The lysates were centrifuged and filtered to remove cell debris. The remaining kinases were produced in HEK-293 cells and subsequently tagged with DNA for qPCR detection. […] The liganded beads were blocked with excess biotin and washed with blocking buffer (SeaBlock (Pierce), 1% BSA, 0.05% Tween 20, 1 mM DTT) to remove unbound ligand and to reduce nonspecific binding. […] All reactions were performed in polystyrene 96-well plates in a final volume of 0.135 mL. […] The kinase concentration in the eluates was measured by qPCR.

[6] = biological target: ALK (Homo sapiens (Human), UniProt Q9UM73); experiment: KINOMEscan kinase binding assay (DiscoveRx)
Description: as §2

[7] = test system: AKT; experiment: Downstream signal target phosphorylation assay in KM12 cells (western blot); type: cell-based; details: Homo sapiens, 5 hours treatment, read-out: inhibition of phosphorylation of AKT IC50
Description: as §1

[8] = test system: ERK; experiment: as above; type: cell-based; details: Homo sapiens, 5 hours treatment, read-out: inhibition of phosphorylation of ERK IC50
Description: as §1

[9] = test system: Colorectal cell line KM12 (harboring endogenous TPM3-TRKA fusion gene); experiment: KM12 cell proliferation assay (CellTiter-Glo); type: cell-based; details: Homo sapiens, 72 hours incubation, read-out: KM 12 cell prolif. IC50
[10] = biological target: JAK1 (Homo sapiens (Human), UniProt P23458); experiment: KINOMEscan kinase binding assay (DiscoveRx)
Description: (§3) Kinase binding assays were performed at DiscoveRx using the general KINOMEscan Kd Protocol (Fabian, M. A. et al., “A small molecule-kinase interaction map for clinical kinase inhibitors,” Nat. Biotechnol. 2005, 23(3):329-36). For most assays, kinase-tagged T7 phage strains were prepared in an E. coli host derived from the BL21 strain. E. coli were grown to log-phase and infected with T7 phage and incubated with shaking at 32° C. until lysis. The lysates were centrifuged and filtered to remove cell debris. The remaining kinases were produced in HEK-293 cells and subsequently tagged with DNA for qPCR detection. Streptavidin-coated magnetic beads were treated with biotinylated small molecule ligands for 30 minutes at room temperature to generate affinity resins for kinase assays. The liganded beads were blocked with excess biotin and washed with blocking buffer (SeaBlock (Pierce), 1% BSA, 0.05% Tween 20, 1 mM DTT) to remove unbound ligand and to reduce nonspecific binding. […] All reactions were performed in polystyrene 96-well plates in a final volume of 0.135 mL. […] The beads were then re-suspended in elution buffer (1×PBS, 0.05% Tween 20, 0.5 μM non-biotinylated affinity ligand) and incubated at room temperature with shaking for 30 minutes. The kinase concentration in the eluates was measured by qPCR.

[11] = biological target: PLK4 kinase (Homo sapiens (Human), UniProt O00444); experiment: KINOMEscan kinase binding assay (DiscoveRx); details: read-out: binding affinity with PLK4 kinase (Kd)
Description: as §3

[12] = biological target: TRKA (Homo sapiens (Human), UniProt P04629); experiment: KINOMEscan kinase binding assay (DiscoveRx)
Description: as §3

[13] = biological target: TRKB (Homo sapiens (Human), UniProt Q16620); experiment: KINOMEscan kinase binding assay (DiscoveRx)
TRKB, sequence (Q16620 32-822): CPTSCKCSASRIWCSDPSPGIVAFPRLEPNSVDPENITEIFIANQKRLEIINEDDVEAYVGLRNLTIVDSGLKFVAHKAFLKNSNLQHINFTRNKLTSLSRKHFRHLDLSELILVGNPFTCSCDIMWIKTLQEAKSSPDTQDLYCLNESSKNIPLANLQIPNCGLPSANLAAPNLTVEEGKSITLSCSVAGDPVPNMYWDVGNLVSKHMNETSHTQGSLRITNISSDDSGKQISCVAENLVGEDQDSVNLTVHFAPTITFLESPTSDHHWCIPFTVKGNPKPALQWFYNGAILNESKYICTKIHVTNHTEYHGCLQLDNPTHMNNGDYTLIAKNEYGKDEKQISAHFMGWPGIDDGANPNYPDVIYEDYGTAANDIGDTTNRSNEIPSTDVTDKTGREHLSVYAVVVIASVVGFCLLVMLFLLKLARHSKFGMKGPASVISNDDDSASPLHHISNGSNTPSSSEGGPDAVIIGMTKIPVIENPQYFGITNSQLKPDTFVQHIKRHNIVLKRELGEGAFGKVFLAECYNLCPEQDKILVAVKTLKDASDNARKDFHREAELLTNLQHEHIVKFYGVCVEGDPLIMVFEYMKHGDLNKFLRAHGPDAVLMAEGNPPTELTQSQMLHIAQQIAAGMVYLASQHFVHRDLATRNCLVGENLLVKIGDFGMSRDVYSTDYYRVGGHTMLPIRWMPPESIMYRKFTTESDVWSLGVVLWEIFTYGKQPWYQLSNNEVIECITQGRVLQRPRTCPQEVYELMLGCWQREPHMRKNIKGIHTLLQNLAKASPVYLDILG
Description: as §3

[14] = biological target: ROS1 (Homo sapiens (Human), UniProt P08922); experiment: KINOMEscan kinase binding assay (DiscoveRx)
ROS1, sequence (P08922 28-2347): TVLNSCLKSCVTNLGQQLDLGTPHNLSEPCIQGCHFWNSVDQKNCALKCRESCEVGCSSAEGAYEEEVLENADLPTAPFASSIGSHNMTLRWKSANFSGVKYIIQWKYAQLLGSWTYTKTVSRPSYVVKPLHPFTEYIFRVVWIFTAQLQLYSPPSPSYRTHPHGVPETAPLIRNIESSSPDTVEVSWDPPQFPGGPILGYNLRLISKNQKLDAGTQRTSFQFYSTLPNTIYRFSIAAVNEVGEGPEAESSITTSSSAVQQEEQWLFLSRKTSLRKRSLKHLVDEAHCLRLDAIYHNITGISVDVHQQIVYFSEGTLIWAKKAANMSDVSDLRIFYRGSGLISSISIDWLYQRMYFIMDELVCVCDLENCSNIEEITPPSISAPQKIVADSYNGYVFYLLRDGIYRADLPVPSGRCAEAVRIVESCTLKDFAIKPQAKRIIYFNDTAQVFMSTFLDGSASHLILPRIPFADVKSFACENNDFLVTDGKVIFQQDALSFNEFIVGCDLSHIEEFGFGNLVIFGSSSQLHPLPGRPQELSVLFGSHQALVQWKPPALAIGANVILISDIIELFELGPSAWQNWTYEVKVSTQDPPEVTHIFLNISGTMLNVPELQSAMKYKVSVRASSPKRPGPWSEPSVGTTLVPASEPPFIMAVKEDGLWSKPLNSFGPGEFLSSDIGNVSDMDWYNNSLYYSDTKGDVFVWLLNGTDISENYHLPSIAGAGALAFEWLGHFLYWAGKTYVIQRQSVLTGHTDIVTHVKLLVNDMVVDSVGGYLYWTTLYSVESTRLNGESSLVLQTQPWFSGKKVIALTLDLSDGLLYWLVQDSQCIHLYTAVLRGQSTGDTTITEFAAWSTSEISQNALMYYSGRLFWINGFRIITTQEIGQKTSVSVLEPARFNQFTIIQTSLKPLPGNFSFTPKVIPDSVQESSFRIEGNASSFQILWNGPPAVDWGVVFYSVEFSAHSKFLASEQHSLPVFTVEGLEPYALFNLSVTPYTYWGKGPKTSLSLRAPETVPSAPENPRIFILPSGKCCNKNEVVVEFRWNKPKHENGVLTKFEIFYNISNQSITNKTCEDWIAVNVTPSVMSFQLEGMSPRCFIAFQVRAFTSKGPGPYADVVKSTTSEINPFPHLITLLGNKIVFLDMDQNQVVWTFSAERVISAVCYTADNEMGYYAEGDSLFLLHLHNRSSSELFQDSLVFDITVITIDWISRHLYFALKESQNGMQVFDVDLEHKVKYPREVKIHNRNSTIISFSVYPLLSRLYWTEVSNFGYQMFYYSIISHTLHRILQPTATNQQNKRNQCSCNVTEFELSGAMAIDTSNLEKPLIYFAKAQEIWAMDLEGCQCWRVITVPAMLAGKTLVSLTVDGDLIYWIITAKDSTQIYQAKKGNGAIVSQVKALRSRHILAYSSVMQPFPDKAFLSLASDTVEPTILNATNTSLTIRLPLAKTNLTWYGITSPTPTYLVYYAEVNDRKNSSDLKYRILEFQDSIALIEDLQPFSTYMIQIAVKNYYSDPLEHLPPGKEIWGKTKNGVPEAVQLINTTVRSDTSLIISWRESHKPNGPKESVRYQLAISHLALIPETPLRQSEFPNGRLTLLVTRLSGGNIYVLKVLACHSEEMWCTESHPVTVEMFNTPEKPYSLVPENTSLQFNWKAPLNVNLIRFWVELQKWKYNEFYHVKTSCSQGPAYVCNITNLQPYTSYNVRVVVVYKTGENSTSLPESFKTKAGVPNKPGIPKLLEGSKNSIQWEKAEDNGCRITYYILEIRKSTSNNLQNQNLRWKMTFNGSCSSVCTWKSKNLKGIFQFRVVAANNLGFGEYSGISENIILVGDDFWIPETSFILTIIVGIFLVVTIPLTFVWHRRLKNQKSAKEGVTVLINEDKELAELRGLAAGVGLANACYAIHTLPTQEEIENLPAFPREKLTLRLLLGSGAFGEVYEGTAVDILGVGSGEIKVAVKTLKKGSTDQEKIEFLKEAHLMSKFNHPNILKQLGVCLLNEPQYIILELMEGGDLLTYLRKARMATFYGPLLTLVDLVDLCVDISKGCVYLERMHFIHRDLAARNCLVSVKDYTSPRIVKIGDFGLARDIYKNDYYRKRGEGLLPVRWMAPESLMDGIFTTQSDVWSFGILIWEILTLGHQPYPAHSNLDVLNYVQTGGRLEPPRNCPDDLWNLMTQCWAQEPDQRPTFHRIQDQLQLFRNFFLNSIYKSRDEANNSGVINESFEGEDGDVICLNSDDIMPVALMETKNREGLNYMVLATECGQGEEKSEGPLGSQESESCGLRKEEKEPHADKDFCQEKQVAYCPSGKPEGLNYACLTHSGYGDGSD
Description: as §3

[15] = biological target: JAK3 (Homo sapiens (Human), UniProt P52333); experiment: KINOMEscan kinase binding assay (DiscoveRx)
Description: as §3

IC50 [1]: 1000 nM
IC50 [4]: 1.07 nM
Kd [5]: 4.8 nM
Kd [6]: 80 nM
IC50 [7]: 2.8 nM
IC50 [8]: 2 nM
Kd [10]: > 1000 nM
Kd [11]: 2.9 nM
Kd [12]: 0.031 nM
Kd [13]: 0.18 nM
Kd [14]: 21 nM
Kd [15]: 120 nM
SMILES: CN1Cc2cc(F)ccc2OCCNC(=O)c2cnn3ccc1nc23 [Example 20, 11-fluoro-14-methyl-6,7,13,14-tetrahydro-1,15-ethenopyrazolo[4,3-f][1,4,8,10]benzoxatriazacyclo-tridecin-4(5H)-one]
IC50 [2]: 2000 nM
apoptosis of KM 12 cells [3]: induced apoptosis
IC50 [9]: 0.86 nM
